From patent publication US20240115557A1, “INHIBITORS OF RNA-GUIDED NUCLEASES AND USES THEREOF” (The Brigham and Women's Hospital, Inc., priority 2022, published 2024)

How the values were obtained:
SpCas9 = SpCas9 (Streptococcus pyogenes serotype M1, UniProt Q99ZW2); assay: eGFP disruption assay, SpCas9, U2OS.eGFP.PEST cells; assay type: cell-based; conditions: for Z score Rep1 / Normalized Z rep1: replicate 1; for SpCas9 eGFP disruption Rep1: replicate 1, raw readout; for Z socre Rep2 / Normalized Z rep2: replicate 2; for SpCas9 eGFP disruption Rep2: replicate 2, raw readout
Sequence of SpCas9 (Q99ZW2 whole entry): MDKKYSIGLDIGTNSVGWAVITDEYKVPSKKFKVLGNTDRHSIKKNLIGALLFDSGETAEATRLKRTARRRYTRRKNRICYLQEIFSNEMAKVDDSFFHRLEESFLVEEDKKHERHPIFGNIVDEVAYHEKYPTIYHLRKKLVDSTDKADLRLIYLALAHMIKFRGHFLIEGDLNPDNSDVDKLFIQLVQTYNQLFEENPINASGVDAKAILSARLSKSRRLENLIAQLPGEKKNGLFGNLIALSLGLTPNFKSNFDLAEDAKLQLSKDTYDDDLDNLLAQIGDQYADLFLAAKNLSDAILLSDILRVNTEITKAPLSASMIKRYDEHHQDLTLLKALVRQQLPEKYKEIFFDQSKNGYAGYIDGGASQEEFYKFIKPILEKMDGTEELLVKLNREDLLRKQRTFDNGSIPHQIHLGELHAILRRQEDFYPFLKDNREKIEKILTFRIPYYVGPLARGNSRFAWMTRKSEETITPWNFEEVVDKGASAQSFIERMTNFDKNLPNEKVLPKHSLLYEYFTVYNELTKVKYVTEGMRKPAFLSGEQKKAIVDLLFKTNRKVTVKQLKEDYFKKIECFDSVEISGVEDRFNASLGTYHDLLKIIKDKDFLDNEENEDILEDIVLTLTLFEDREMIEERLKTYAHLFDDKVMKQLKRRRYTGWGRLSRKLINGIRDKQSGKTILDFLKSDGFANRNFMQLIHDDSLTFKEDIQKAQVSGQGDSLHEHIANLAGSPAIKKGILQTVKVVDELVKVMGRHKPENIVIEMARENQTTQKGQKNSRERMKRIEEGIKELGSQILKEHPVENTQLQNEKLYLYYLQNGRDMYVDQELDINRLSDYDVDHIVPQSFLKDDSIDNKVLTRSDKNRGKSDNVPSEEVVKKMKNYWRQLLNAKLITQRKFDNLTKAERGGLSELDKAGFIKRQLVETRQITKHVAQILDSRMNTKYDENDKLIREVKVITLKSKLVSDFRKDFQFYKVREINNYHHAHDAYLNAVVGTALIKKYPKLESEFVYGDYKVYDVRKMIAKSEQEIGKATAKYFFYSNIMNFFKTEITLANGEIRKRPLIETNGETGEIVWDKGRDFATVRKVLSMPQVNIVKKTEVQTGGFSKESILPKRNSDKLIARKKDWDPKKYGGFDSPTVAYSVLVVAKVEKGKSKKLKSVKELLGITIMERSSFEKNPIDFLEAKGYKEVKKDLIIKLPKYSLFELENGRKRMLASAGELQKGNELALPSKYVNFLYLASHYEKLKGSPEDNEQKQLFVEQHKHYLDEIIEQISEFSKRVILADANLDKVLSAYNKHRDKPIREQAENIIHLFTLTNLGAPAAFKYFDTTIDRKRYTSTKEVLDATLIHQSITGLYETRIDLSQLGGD
Summary of the method: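 Rescue of eGFP signal lost through Cas9-induced NHEJ indels serves as the inhibition read-out, after 24 h compound exposure (20 μM for hits, variable for dose-response). Editing was delivered by nucleofection into U2OS.eGFP.PEST cells as SpCas9/gRNA plasmids (300/30 ng) or RNP (10/12 pmol). Toxic and autofluorescent compounds were excluded.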

SaCas9 [1] = target: T1, SaCas9 (Staphylococcus aureus, UniProt J7RUA5); assay: eGFP secondary assay, SaCas9; assay type: cell-based; conditions: for Z score Avg Z: average of two replicates, Zscore>3 selected as hit; for Normalized Inhibition Rep 1: replicate 1; for Normalized eGFP Disruption Rep 1: replicate 1, % eGFP disruption; for Z score Rep1: replicate 1, Zscore>3 selected as hit; for Normalized Inhibition Rep 2: replicate 2; for Normalized eGFP Disruption Rep 2: replicate 2, % eGFP disruption; for Z score Rep 2: replicate 2, Zscore>3 selected as hit
T1 sequence (J7RUA5 1-1053): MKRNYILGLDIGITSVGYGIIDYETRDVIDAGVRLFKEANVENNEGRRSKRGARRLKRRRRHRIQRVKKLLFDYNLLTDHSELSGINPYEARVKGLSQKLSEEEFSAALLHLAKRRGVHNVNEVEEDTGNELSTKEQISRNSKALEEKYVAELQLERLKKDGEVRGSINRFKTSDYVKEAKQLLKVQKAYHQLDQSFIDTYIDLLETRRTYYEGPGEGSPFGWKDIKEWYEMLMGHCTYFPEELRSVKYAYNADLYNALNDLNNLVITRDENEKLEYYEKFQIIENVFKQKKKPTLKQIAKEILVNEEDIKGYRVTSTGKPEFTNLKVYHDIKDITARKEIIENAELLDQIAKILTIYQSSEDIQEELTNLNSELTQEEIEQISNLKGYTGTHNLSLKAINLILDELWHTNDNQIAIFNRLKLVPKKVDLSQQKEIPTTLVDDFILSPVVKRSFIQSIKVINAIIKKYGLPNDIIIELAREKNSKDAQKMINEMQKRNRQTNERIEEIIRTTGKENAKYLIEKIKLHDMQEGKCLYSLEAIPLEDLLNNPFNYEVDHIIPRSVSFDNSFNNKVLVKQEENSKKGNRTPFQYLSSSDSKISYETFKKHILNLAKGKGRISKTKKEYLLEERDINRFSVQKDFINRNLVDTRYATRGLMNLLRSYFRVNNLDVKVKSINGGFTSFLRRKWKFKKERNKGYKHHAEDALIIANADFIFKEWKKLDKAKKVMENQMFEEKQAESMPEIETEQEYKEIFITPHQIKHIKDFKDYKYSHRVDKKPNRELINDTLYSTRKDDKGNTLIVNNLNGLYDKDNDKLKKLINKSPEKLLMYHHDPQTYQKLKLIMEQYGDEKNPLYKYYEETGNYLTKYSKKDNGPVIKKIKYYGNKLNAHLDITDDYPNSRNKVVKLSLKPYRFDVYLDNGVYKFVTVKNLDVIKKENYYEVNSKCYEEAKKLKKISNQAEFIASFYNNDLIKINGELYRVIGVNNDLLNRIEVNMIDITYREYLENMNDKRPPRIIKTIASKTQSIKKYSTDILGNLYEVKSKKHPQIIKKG
Description: All hit compounds were moved forward into the secondary and tertiary screens, in which they were tested in cell-based assays. An eGFP assay is used to determine hits in cells as the secondary screen (eGFP assay).
The eGFP secondary assay evaluated the hits identified from the primary screen. The compounds were judged off the % eGFP disruption to determine the Cas9 inhibition and the assay Zscore. […] The hits from the secondary screens will be processed through tertiary screens of dose studies and HiBit Assay as detailed herein.

SaCas9 [2] = target: T1, SaCas9; assay: Strand displacement assay, SaCas9 primary screen; assay type: biochemical; conditions: for Auto Zscore Rep 1 / Auto Zscore Rep 2 / Normalized Zscore Rep 1 / Normalized Zscore Rep 2: SaCas9 primary screen; for Auto Zscore Rep 1 / Normalized Zscore Rep 1: replicate 1; for Auto Zscore Rep 2 / Normalized Zscore Rep 2: replicate 2; for Normalized Zscore Rep 1 / Normalized Zscore Rep 2: weaker potential hits; for 3 sigma Hit: flag 1 = hit at 3 sigma
Summary of the method: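 Cas9 RNP (1:1.2 protein:gRNA) pre-formed in 20 mM Tris-HCl pH 7.5, 100 mM KCl, 5 mM MgCl2, used at 10 nM (2× stock) with Alexa-Fluor 647 substrate/quencher at 1 nM/5 nM (2× stock). Reaction ran 2.5 h at 37°C; strand displacement read as fluorescence. Hits called by Z-score: 3–5σ weak, >5σ strong.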

[3] = Cas9 = lower control, Ctrl = upper control
[4] = normalized, lower control about 0, upper control about 1

Compound | Z score Avg Z (SaCas9 [1]) | Normalized Inhibition Rep 1 (SaCas9 [1]) | Normalized eGFP Disruption Rep 1 (SaCas9 [1]) | Z score Rep1 (SaCas9 [1]) | Normalized Inhibition Rep 2 (SaCas9 [1]) | Normalized eGFP Disruption Rep 2 (SaCas9 [1]) | Z score Rep 2 (SaCas9 [1]) | also measured
Cc1occc1-c1nnc2sc(-c3c[nH]c4ccccc34)nn12 [Compound D727-0786] | 5.097 | 57.282 | 42.718 | 8.674 | 12.722 | 87.278 | 1.519 | Z score Rep1 (SpCas9): 0.48; SpCas9 eGFP disruption Rep1 (SpCas9; [3]): 68.596; Normalized Z rep1 (SpCas9; [4]): 0.07; Z socre Rep2 (SpCas9): 1.91; SpCas9 eGFP disruption Rep2 (SpCas9; [3]): 68.839; Normalized Z rep2 (SpCas9; [4]): 0.20
NC(=O)c1sc(=S)n(Cc2ccccc2)c1N [Compound F128-0030] | 8.704 | 70.438 | 29.562 | 9.005 | 67.693 | 32.307 | 8.402 | Auto Zscore Rep 1 (SaCas9 [2]): −0.4371; Auto Zscore Rep 2 (SaCas9 [2]): 0.1928; Normalized Zscore Rep 1 (SaCas9 [2]): 0.187; Normalized Zscore Rep 2 (SaCas9 [2]): 0.143; 3 sigma Hit (SaCas9 [2]): 1
O=c1oc2c(O)c(O)ccc2c2c1CCCC2 [D715-2438] | 3.681 | 17.908 | 82.092 | 2.712 | 38.947 | 61.053 | 4.650 | 
COc1ccccc1-c1nn2c(-c3cccnc3)nnc2s1 [D727-0059] | 3.290 | 17.227 | 82.773 | 2.609 | 33.253 | 66.747 | 3.970 | 
Cc1cc(-c2nn3c(-c4cccc(F)c4)nnc3s2)c2ccccc2n1 [D727-0417] | 3.995 | 33.326 | 66.674 | 5.046 | 24.659 | 75.341 | 2.944 | 
Cc1nn(-c2ccccc2)c(C)c1CCc1nnc2sc(-c3ccc(N(C)C)cc3)nn12 [D727-0717] | 6.053 | 33.284 | 66.716 | 5.040 | 59.171 | 40.829 | 7.065 | 
CC(C)Cc1nnc2sc(-c3c[nH]c4ccccc34)nn12 [D727-0768] | 4.634 | 20.049 | 79.951 | 3.036 | 52.187 | 47.813 | 6.231 | 
COc1cccc(N2C(=O)c3cc4ccccc4n3CC2(C)C(=O)NC2CCCCC2)c1 (stereo not drawn) [E234-0006] | 5.194 | 57.048 | 42.952 | 6.753 | 27.639 | 72.361 | 3.635 | 
CC1(C(=O)NC2CCCCC2)Cn2c(cc3ccccc32)C(=O)N1Cc1ccccc1 (stereo not drawn) [E234-0008] | 5.237 | 50.589 | 49.411 | 5.989 | 34.101 | 65.899 | 4.485 | 
COc1ccc(N2C(=O)c3cc4ccccc4n3CC2(C)C(=O)NC2CCCCC2)c(OC)c1 (stereo not drawn) [E234-0018] | 3.770 | 38.606 | 61.394 | 4.570 | 22.579 | 77.421 | 2.970 | 
O=C(NCCCN1CCC(N2CCCCC2)CC1)C1=Cc2sc3c(c2CS1)CCCC3 [E722-2652] | 5.750 | 43.522 | 56.478 | 5.564 | 47.827 | 52.173 | 5.937 | Auto Zscore Rep 1 (SaCas9 [2]): 1.567; Auto Zscore Rep 2 (SaCas9 [2]): 0.3807; Normalized Zscore Rep 1 (SaCas9 [2]): 0.4606; Normalized Zscore Rep 2 (SaCas9 [2]): 0.3192; 3 sigma Hit (SaCas9 [2]): 1; 5 sigma Hit (SaCas9 [2]; flag 1 = hit at 5 sigma): 1
CNC(=O)c1sc(=S)n2c1[nH]c(=O)c1cc(Br)ccc12 [F083-0285] | 3.318 | 30.708 | 69.292 | 3.635 | 22.819 | 77.181 | 3.002 | Normalized Z rep1 (SpCas9): −0.25; Z score Rep1 (SpCas9): −1.78; SpCas9 eGFP disruption Rep1 (SpCas9): 61.126; Normalized Z rep2 (SpCas9): −0.48; Z socre Rep2 (SpCas9): −4.46; SpCas9 eGFP disruption Rep2 (SpCas9): 49.642
CC(=O)Nc1ccc(C(=O)Nc2ccc(CCc3nc4ccccc4n3-c3ccccc3)cc2)cc1 [F255-0057] | 5.773 | 46.812 | 53.188 | 5.542 | 45.641 | 54.359 | 6.003 | 
CCCN(CCC)C(=O)C1CCCN(c2ccc(-c3ccccc3)nn2)C1 (stereo not drawn) [F305-0061] | 5.220 | 39.473 | 60.527 | 4.673 | 43.845 | 56.155 | 5.767 | 
C=CC1=C(C(=O)O)N2C(=O)[C@@H](NC(=O)C(=NOCC(=O)O)c3csc(N)n3)[C@H]2SC1.O [SAM001246816] | 3.731 | 37.117 | 62.883 | 4.745 | 21.891 | 78.109 | 2.717 | Z score Rep1 (SpCas9): 0.17; SpCas9 eGFP disruption Rep1 (SpCas9; [3]): 76.555; Normalized Z rep1 (SpCas9; [4]): 0.03; Z socre Rep2 (SpCas9): −1.15; SpCas9 eGFP disruption Rep2 (SpCas9; [3]): 74.015; Normalized Z rep2 (SpCas9; [4]): −0.12
O=C1c2ccccc2C(=O)c2oc(-c3ccc(F)cc3)nc21 [T0502-0200] | 3.138 | 35.091 | 64.909 | 3.528 | 35.519 | 64.481 | 2.749 | 
